From US12502383B2, “Pharmaceutical composition of cyclooxygenase-2 inhibitors” (THEMIS MEDICARE LIMITED, priority 2019, dated 2025)
Like-named read-outs stand apart in the source and are kept apart here.

What was measured:
[1] = cited from earlier work
[2] = in vivo; cited from earlier work
[3] = Solubilization of Etoricoxib in solubilizers; assay type: physicochemical
Procedure: The ratio of active to solubilizers between 1:35 to 1:135.71 gives good solubilization of coxib. Satisfactory compositions can be produced wherein ration of active to solubilizer is between 1:35 to 1:58.33. Etoricoxib 1.4 mg ie 0.14% w/v can be solubilized in Twin 80, 8% w/v and Transcutol 3% w/v. It can also be solubilized in Ethanol and Tween 8% w/v each and Transcutol 3% w/v. One can consider it as 3 solubilizers or 2 solubilizers and one solvent.

[4] = after oral and intravenous administration; cited from earlier work
[5] = cited from earlier work; remark: listed apart in the source
[6] = test system: mouse; conditions: cited from earlier work
[7] = test system: Dog; conditions: intravenous: Dog; cited from earlier work
[8] = test system: rabbit; conditions: intravenous: rabbit; cited from earlier work

SMILES	Solubility in anhydrous ethanol [1]	Solubility in methylene chloride [1]	Solubility in water [1]	solubility in DMF [1]	solubility in DMSO [1]	solubility in ethanol [1]	drug eliminated unchanged [2] [%]	Etoricoxib solubilized ([3]; in Ethanol and Tween 8% w/v each and Transcutol 3% w/v)	Etoricoxib solubilized ([3]; in Twin 80, 8% w/v and Transcutol 3% w/v) [mg]	Solubility in 2-propanol [1]	Solubility in isopropyl acetate, ethanol and toluene [1]	Solubility in methanol, tetrahydrofuran, dimethyl sulfoxide, methyl ethyl ketone, dimethyl formamide, and chloroform [1]	Bioavailability [4] [%]	protein binding [5]	LD50 ([6]; intravenous: mouse) [µL/kg]	LD50 ([6]; subcutaneous: mouse) [µL/kg]	LD50 [7] [mL/kg]	LD50 [8] [µL/kg]
Cc1ccc(-c2cc(C(F)(F)F)nn2-c2ccc(S(N)(=O)=O)cc2)cc1 [Celecoxib, 4-[5-(4-methylphenyl)-3-(trifluoromethyl)pyrazol-1-yl]benzenesulfonamide]	freely soluble to soluble	soluble	practically insoluble	approximately 25 mg/ml	approximately 16.6 mg/ml	approximately 25 mg/ml	< 3	–	–	–	–	–	–	–	–	–	–	–
Cc1ccc(-c2ncc(Cl)cc2-c2ccc(S(C)(=O)=O)cc2)cn1 [Etoricoxib]	–	–	practically insoluble	–	–	–	–	solubilized	1.4	sparingly soluble	soluble	freely soluble	100	about 92%	–	–	–	–
CCOCCOCCO [Transcutol, Diethylene Glycol Monoethyl Ether]	–	–	–	–	–	–	–	–	–	–	–	–	–	–	4300	5500	3	2500
